Reference: patent publication US10035791B2, “Bicyclic compound and pharmaceutical composition thereof for treating stroke and use thereof” (China Medical University, priority 2016, dated 2018)

Tested on: HIF-1α
Assay: HIF-1α expressions in the brains of the ischemic rats, Western blot
Type: in vivo, Sprague-Dawley (SD) rats
From the text: The ischemic rats are induced by an ischemia-reperfusion model to simulate transient focal cerebral ischemia in rats. Test animals are male Sprague-Dawley (SD) rats weighing 250-300 g. The rats are anesthetized with chloral hydrate (0.4 g/kg IP) and subjected to cerebral ischemia. The ischemia-reperfusion model is induced by ligations of bilateral common carotid arteries (CCAs) and a right middle cerebral artery (MCA). The bilateral CCAs are clamped with non-traumatic arterial clips, and the right MCA is ligated with an 10-0 nylon suture. After 90 minutes ischemia, the suture on the MCA and the arterial clips on CCAs are removed to allow reperfusion. Core body temperature is monitored with a thermistor probe (Hewlett-Packard Model 21090A probe, Hewlett-Packard Company, Andover, Mass.), and maintained at 37° C. with a heating pad during anesthesia. After recovery from anesthesia, rat body temperature is maintained at 37° C. with a heat lamp.
The ischemia-reperfusion model is established as described above. The ischemic rats are injected intraperitonealy with different dosages of the Compound 1 (0.1 mg/kg, 1 mg/kg and 10 mg/kg) at 4 hours after MCA ligation for three consecutive days. Sham rats undergo same protocol with the exception of the ligation of the bilateral CCAs and the right MCA. The rats only injected a vehicle are used as the control. The ischemic rats are decapitated at 4 hours, 16 hours, 24 hours, 36 hours and 72 hours after the Compound 1 injection. The Bmi-1 expressions and the HIF-1α expressions of the ischemic rats are detected by the Western blot analysis.
The ischemic rats are further treated with 100 mg/kg of the 2-ME2 or stereotaxic injected with the LV-Bmi-1-sh or the LV-control-sh to inhibit the HIF-1α expressions and the Bmi-1 expressions, and then the ischemic rats are treated with 1 mg/kg of the Compound 1. The effect of the administration of the Compound 1 on the Bmi-1 expressions in the brains of the ischemic rats which are reduced the Bmi-1 expressions or the HIF-1α expressions are detected by the Western blot analysis.

COC(=O)C1=CO[C@@H](O)[C@@H]2C(COC(=O)[C@@H](N)Cc3ccccc3)=CC[C@H]12 [Compound 1]
treatment time with the highest HIF-1α expression (1 mg/kg, 4 to 72 hours after injection, FIG. 13A): 4 h | HIF-1α expressions in the brains of the ischemic rats (0.1, 1, 10 mg/kg intraperitoneal, vs control and sham rats, FIGS. 13A, 13B): significantly increases | dosage with the highest HIF-1α expression (0.1, 1, 10 mg/kg tested, 36 hours, FIG. 13B): 1 mg/kg
